Experimental findings from patent US9206241B2, “Modified prokaryotic ubiquitin-like protein and methods of use thereof” (priority 2012, dated 2015) are described below.

One assay concerns lysates of E. coli. The assay can be described thus: Hydrolysis of substrate in E. coli lysates. The format is biochemical.
In assay [1] the target is Dop (deamidase of Pup), Dop-His6 (Mycobacterium tuberculosis, UniProt P9WNU9). As to conditions: for Km / kcat: Dop kinetics with synthetic substrate, n.a. = no activity.
Sequence of Dop (deamidase of Pup), Dop-His6 (P9WNU9 whole entry): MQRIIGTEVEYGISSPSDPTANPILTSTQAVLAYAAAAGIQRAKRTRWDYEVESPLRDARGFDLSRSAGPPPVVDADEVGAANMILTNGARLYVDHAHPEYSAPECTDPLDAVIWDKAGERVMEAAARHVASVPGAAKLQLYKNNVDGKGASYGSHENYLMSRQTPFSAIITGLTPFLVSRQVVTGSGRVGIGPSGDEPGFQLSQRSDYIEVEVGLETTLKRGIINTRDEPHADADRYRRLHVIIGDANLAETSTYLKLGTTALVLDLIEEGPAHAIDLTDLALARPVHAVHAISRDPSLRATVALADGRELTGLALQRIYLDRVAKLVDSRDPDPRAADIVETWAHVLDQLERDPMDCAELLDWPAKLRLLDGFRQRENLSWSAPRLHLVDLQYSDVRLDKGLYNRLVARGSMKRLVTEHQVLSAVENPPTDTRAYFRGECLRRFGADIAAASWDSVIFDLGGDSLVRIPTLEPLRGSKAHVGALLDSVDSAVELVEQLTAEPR
Excerpt: SoftMax Pro (Molecular Devices) was used to measure the data and GraphPad Prism was used to fit the kinetic data.

“MAQEQTKRGGGGGDDDDIAGSTAAGQERREKLTEETDDLLDEIDDV LEENAEDFVRAYVQKGG-Glu(AMC) [1a]”: the “hydrolysis of substrate in lysate” value in the assay on lysates of E. coli is reported as “could not hydrolyze”. In addition, in assay [1], the Km stood at 0.65 ± 0.07 µM and the kcat was 0.01 ± 0.00033 s⁻¹. Moreover, the “hydrolytic activity of Dop on the substrate (cleavage of AMC)” value in assay [1] (increase in fluorescence over time) is on record as “showed hydrolytic activity”.
Regarding “EETDDLLDEIDDVLEENAEDFVRAYVQKGG-Glu(AMC) [1b]”, in assay [1], the Km was 0.75 ± 0.08 µM and the kcat was determined as 0.0113 ± 0.00033 s⁻¹.

By Km is commonly meant the concentration of substrate that gives half-maximal velocity. As a reminder, the kcat is the number of substrate molecules converted per active site and unit of time at saturation.
